Source: the supplement of paper PMC8967900

Assays:
Assay in all cases: selective drug sensitivity score (sDSS, relative to normal bone marrow) (sDSS (score)); higher = more potent and effective on the cell line relative to normal bone marrow cells
Details in all cases: 72 h
ALL-SIL = test system: ALL-SIL
CCRF-CEM = test system: CCRF-CEM
DND-41 = test system: DND-41
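Also: ALL cell lines in 384-well plates, five doses spanning 10,000-fold, each plate scaled between vehicle and 100 µmol/L benzalkonium chloride controls, sDSS an adapted area-under-curve metric.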

Row | SMILES | selective drug sensitivity score (ALL-SIL) | selective drug sensitivity score (CCRF-CEM) | selective drug sensitivity score (DND-41)
1 | Cc1ccc(C(=O)N(CCCN)[C@@H](c2oc3cc(Cl)ccc3c(=O)c2Cc2ccccc2)C(C)C)cc1 (top concentration 100 nM) | 1.06 | 2.76 | -0.64
2 | C[C@@H](Oc1ccc2[nH]nc(/C=C/c3cnn(CCO)c3)c2c1)c1c(Cl)cncc1Cl (top concentration 1000 nM) | 14.3 | -2.74 | 7.06
3 | CCn1c(C(=O)N(C2CC2)C2CC2)cc2c3c(ncn3C)c(Nc3cc(C)n(C)n3)nc21 (top concentration 10000 nM) | -4.36 | -3.96 | -3.86
4 | CNc1nc(-c2ccc3c(N)n[nH]c3c2)cc(N2C[C@@H](C(=O)NC3CCCCC3)CC[C@H]2C)n1 (top concentration 10000 nM) | 1.36 | 1.36 | 1.96
5 | COc1ccc(Cn2ccc3ccc(C(=O)NO)cc32)cc1 (top concentration 10000 nM) | 2.64 | 3.34 | 2.94
6 | N#Cc1ccc(COC[C@H]2O[C@@H](n3c(NCc4ccc(Cl)c(Cl)c4)nc4c(N)ncnc43)[C@H](O)[C@@H]2O)cc1 (top concentration 10000 nM) | 11.7 | 7.62 | 8.82
7 | NC[C@@](O)(c1ccc(Cl)cc1)c1ccc(-c2cn[nH]c2)cc1 (top concentration 10000 nM) | -1.22 | 3.88 | -1.22
8 | O=c1[nH]c(C2CCCN2)nc2c1oc1ccc(Cl)cc12 (stereo unspecified) (top concentration 10000 nM) | 0.6 | 5.8 | -1.1
9 | NCC(=O)Nc1ccc(-n2nc(C(F)(F)F)cc2-c2ccc3c(ccc4ccccc43)c2)cc1 (top concentration 25000 nM) | 8.4 | 7.9 | 7.5
10 | Nc1ncnc2c1nc(Cl)n2[C@@H]1O[C@H](CO)[C@@H](O)[C@H]1O [8-chloro-adenosine] (top concentration 50000 nM) | -3.4 | 9.1 | -3.9
11 | COc1ccc(S(=O)(=O)Nc2cccnc2Nc2ccc(O)cc2)cc1 [ABT-751] (top concentration 10000 nM) | 17.6 | 12.2 | 6.12
12 | CC1CCC(n2c3cnccc3c3cnc(Nc4ccc5c(n4)CCN(C(=O)CO)C5)nc32)CC1 (stereo unspecified) [AMG-925] (top concentration 1000 nM) | 2.04 | 3.14 | 6.14
13 | O=C(NC1CCNCC1)c1n[nH]cc1NC(=O)c1c(Cl)cccc1Cl [AT7519] (top concentration 10000 nM) | -6.06 | -3.46 | -5.66
14 | Cc1cc2c(C(C)C)c(O)c(O)c(C=O)c2c(O)c1-c1c(C)cc2c(C(C)C)c(O)c(O)c(C=O)c2c1O [AT-101] (top concentration 100000 nM) | 5.08 | 4.88 | 4.68
15 | N[C@@H]1CCCN(c2c(/C=C3\SC(=O)NC3=O)cccc2-c2ccccc2)C1 [AZD1208] (top concentration 10000 nM) | 0.7 | -4.4 | -1.3
16 | Cc1ncc(-c2ccnc(Nc3ccc(S(C)(=O)=O)cc3)n2)n1C(C)C [AZD-5438] (top concentration 10000 nM) | -3.86 | 3.54 | -2.06
17 | CCN1CCN(Cc2ccc(Nc3ncc(F)c(-c4cc(F)c5nc(C)n(C(C)C)c5c4)n3)nc2)CC1 [Abemaciclib] (top concentration 2500 nM) | -2.66 | -2.36 | 0.34
18 | Cn1ncc(Cl)c1-c1cc(C(=O)N[C@H](CN)Cc2cccc(F)c2)sc1Cl [Afuresertib] (top concentration 1000 nM) | 3.66 | 5.36 | -2.34
19 | O=C(Nc1cc(Oc2cc(F)c(NC(=O)C3(C(=O)Nc4ccc(F)cc4)CC3)cc2F)ccn1)C1CC1 [Altiratinib] (top concentration 10000 nM) | 13.9 | -0.16 | 3.74

Row | SMILES | selective drug sensitivity score (ALL-SIL) | selective drug sensitivity score (CCRF-CEM) | selective drug sensitivity score (DND-41)
20 | CN1CC[C@H](c2c(O)cc(O)c3c(=O)cc(-c4ccccc4Cl)oc23)[C@H](O)C1 [Alvocidib] (top concentration 10000 nM) | -3.3 | 0.6 | -4.1
21 | CC(C)c1c(C(=O)Nc2ccccc2)c(-c2ccccc2)c(-c2ccc(F)cc2)n1CC[C@@H](O)C[C@@H](O)CC(=O)O [Atorvastatin] (top concentration 10000 nM) | 4.2 | 0.3 | 1.9
22 | Nc1ncn([C@@H]2O[C@H](CO)[C@@H](O)[C@H]2O)c(=O)n1 [Azacitidine] (top concentration 10000 nM) | 5.94 | 9.34 | 2.14
23 | Cc1cc(-c2nc(-c3ccc(OC(F)(F)F)cc3)no2)nn1Cc1ccnc(N2CCN(C3CC3)CC2)c1 [BAY_87-2243] (top concentration 1000 nM) | 10.1 | 6.34 | 6.84
24 | O=C(Nc1cccc(Nc2ncc(Br)c(NCCc3cnc[nH]3)n2)c1)N1CCCC1 [BX-912] (top concentration 10000 nM) | 9.36 | 9.96 | 2.56
25 | C=C(c1ccc(C(=O)O)cc1)c1cc2c(cc1C)C(C)(C)CCC2(C)C [Bexarotene] (top concentration 10000 nM) | -4.2 | -3.4 | -5.3
26 | Cn1cnc2c(F)c(Nc3ccc(Br)cc3F)c(C(=O)NOCCO)cc21 [Binimetinib] (top concentration 1000 nM) | -1.02 | 1.38 | -2.22
27 | COc1cc(N2CCC(N3CCN(C)CC3)CC2)ccc1Nc1ncc(Cl)c(Nc2ccccc2P(C)(C)=O)n1 [Brigatinib] (top concentration 1000 nM) | -3.34 | -3.34 | 7.16
28 | CC1=NN(c2ccc(C(=O)O)cc2)C(=O)C1=Cc1ccc(-c2cc(C)c(C)cc2[N+](=O)[O-])o1 [C646] (top concentration 25000 nM) | 6.14 | 1.74 | 2.94
29 | CCN1C(=O)CNc2ncc(-c3ccc(-c4nc[nH]n4)nc3C)nc21 [CC-115] (top concentration 10000 nM) | 1.34 | 4.24 | 6.74
30 | Cc1noc2c1-c1ccccc1C(c1ccc(Cl)cc1)=N[C@H]2CC(N)=O [CPI-0610] (top concentration 10000 nM) | -0.6 | -0.1 | 1.6
31 | Cc1cc(Nc2ncc(Cl)c(Nc3ccccc3S(=O)(=O)C(C)C)n2)c(OC(C)C)cc1C1CCNCC1 [Ceritinib] (top concentration 2500 nM) | 4.36 | -3.34 | -3.44
32 | Nc1nc(Cl)nc2c1ncn2[C@@H]1O[C@H](CO)[C@@H](O)[C@@H]1F [Clofarabine] (top concentration 10000 nM) | 4.9 | 8.2 | 1.4
33 | CC1(COc2ccc3c(c2)ncn3-c2ccc3cccc(N4CCC(N)CC4)c3n2)COC1 [Crenolanib] (top concentration 10000 nM) | 0.28 | -1.82 | 0.98
34 | Cc1nc(Nc2ncc(C(=O)Nc3c(C)cccc3Cl)s2)cc(N2CCN(CCO)CC2)n1 [Dasatinib] (top concentration 1000 nM) | 41.4 | -2.8 | 1.4
35 | CCc1cnn2c(NCc3ccc[n+]([O-])c3)cc(N3CCCC[C@H]3CCO)nc12 [Dinaciclib] (top concentration 1000 nM) | -1.74 | -2.54 | -0.14
36 | COc1cccc2c1C(=O)c1c(O)c3c(c(O)c1C2=O)C[C@@](O)(C(=O)CO)C[C@@H]3O[C@H]1C[C@H](N)[C@H](O)[C@H](C)O1 [Doxorubicin] (top concentration 1000 nM) | 1.68 | 7.28 | 1.58
37 | C=C1C[C@@H]2[C@H](CC[C@]3(C)C(=O)CC[C@@H]23)[C@@]2(C)C=CC(=O)C=C12 [Exemestane] (top concentration 10000 nM) | -1.9 | -0.9 | -1.9
